Source: BindingDB's records for patent US9388210 (Washington University, 2016)
pIC50: −log10 of the molar value.

Biological target: Gamma-aminobutyric acid receptor subunit alpha-1/beta-2/gamma-2 (Rattus norvegicus, UniProt P18508+P62813+P63138)
Assay: [35S]TBPS Binding Assay
Settings: pH 7.4; 25 °C
Description: Briefly, aliquots of membrane solution (0.5 mg/mL final protein concentration in assay) were incubated with 5 μM GABA, 2 nM [35S]TBPS (45−120 Ci/mmol), and 5 μL aliquots of steroid in DMSO solution (final assay concentrations ranged from 1 nM to 10 μM), and brought to a final volume of 1 mL with 200 mM NaCl, 50 mM potassium phosphate buffer, pH 7.4. […] Assay tubes were incubated for 2 h at room temperature.

Gamma-aminobutyric acid receptor subunit alpha-1/beta-2/gamma-2, sequence (P62813 whole entry): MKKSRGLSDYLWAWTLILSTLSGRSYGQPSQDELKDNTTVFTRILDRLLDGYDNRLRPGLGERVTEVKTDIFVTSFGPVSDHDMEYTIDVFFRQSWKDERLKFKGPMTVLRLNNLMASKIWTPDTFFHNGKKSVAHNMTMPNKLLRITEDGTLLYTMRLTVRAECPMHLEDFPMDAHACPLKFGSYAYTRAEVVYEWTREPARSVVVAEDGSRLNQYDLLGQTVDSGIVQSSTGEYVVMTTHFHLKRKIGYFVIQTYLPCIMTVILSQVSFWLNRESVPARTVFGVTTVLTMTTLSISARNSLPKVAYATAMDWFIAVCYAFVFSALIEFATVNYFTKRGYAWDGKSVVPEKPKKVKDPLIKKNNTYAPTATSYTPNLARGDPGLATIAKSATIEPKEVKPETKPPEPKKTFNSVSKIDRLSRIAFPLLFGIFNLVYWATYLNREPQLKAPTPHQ
Gamma-aminobutyric acid receptor subunit alpha-1/beta-2/gamma-2, sequence (P63138 whole entry): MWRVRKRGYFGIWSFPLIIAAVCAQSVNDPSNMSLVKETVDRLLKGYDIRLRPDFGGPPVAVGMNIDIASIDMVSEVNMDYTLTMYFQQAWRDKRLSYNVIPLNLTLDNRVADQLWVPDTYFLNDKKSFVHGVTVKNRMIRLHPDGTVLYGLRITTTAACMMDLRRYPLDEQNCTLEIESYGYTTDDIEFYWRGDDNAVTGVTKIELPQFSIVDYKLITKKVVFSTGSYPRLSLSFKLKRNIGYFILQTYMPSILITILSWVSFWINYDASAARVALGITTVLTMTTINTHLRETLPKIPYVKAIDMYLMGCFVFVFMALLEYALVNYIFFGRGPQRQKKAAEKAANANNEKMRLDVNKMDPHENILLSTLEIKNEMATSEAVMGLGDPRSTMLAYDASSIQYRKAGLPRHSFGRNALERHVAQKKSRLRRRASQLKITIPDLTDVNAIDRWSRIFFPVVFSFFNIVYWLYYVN
Gamma-aminobutyric acid receptor subunit alpha-1/beta-2/gamma-2, sequence (P18508 whole entry): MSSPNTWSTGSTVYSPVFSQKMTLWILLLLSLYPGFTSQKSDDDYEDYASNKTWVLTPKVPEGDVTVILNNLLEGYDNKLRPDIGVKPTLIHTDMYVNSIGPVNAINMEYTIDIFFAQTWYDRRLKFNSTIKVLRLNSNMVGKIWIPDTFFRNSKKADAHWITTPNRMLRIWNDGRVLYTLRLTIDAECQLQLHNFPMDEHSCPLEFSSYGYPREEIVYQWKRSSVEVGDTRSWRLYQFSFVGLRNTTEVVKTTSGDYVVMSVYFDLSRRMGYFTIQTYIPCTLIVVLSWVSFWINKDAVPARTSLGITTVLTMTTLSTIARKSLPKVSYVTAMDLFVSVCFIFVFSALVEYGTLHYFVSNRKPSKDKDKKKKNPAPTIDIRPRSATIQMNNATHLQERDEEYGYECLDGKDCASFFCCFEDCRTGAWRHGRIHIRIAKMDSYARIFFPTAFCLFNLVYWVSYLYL

Structure (SMILES)	pIC50
C[C@]12CC[C@@H](O)C[C@@H]1CC[C@@H]1[C@@H]2C(=O)C[C@]2(C)C(C=O)=CC[C@@H]12 [US9388210, 5a]	6.00
C[C@]12CC[C@@H](O)C[C@@H]1CC[C@H]1[C@@H]3CC[C@H](C=O)[C@@]3(C)CC(=O)[C@@H]12 [US9388210, 5b]	6.11
